# Assays:
# [1] = target: T1, rppGalNAcT-5 (Rattus norvegicus, UniProt O88422); test: Radiolabel capture assay, rppGalNAcT-5; format: biochemical; settings: α-FLAG purified enzyme
# T1 construct: plasmids encoding truncated secreted ppGalNAcTs-1 to −5, -7, -10 and -11; FLAG; made in house; host or cells: COS-7
# T1 sequence (O88422 36-930 limits assumed): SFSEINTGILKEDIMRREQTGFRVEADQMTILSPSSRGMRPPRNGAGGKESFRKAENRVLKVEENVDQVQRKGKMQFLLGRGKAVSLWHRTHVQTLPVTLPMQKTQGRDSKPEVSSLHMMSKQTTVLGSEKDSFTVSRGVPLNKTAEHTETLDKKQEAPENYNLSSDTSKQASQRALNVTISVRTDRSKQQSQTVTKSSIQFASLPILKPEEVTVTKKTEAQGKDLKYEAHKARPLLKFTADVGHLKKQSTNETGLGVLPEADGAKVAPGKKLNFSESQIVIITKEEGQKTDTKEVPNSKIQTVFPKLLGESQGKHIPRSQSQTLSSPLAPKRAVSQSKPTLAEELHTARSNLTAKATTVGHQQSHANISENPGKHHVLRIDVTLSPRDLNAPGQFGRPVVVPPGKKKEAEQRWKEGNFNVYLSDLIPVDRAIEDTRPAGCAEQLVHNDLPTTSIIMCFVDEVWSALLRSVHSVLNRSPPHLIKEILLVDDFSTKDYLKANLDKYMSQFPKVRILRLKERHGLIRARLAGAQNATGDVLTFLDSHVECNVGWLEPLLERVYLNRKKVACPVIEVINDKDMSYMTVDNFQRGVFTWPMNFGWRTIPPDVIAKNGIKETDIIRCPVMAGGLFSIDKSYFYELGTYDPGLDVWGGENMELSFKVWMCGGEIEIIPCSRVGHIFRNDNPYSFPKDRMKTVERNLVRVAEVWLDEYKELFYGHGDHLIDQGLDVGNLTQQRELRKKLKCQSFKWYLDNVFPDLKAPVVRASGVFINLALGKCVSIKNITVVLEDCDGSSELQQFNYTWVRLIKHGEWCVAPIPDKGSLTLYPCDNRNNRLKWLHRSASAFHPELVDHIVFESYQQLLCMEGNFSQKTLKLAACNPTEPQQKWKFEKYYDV
# Procedure: Radiolabel capture assays using ^14C-labeled UDP-GalNAc were performed as previously described with various concentrations of 1-68A or 2-68A in 2% DMSO. Ten Hagen et al. (2001) J. Biol. Chem. 276:17395-17404.
# Table 1. IC50 values for 1-68A and 2-68A with ppGalNAcTs-1 to −5, -7, -10, -11, β1-4GalT and α1-3GalT. The requirement of glycopeptides as substrates for ppGalNAcT-7 and -10 precluded the use of the ELLA, as both the substrate and product bind HPA-HRP. Thus, the radiolabel capture assay was employed to measure the IC50 values of 1-68A and 2-68A with ppGalNAcT-7 and -10 using MUC5AC (GTTPSPVPTTSTTSAP; SEQ ID NO:15) glycopeptide, previously shown to be substrate for both enzymes. Ten Hagen et al. (1999) J. Biol. Chem. 274:27867-27874; and Ten Hagen et al. (2001) J. Biol. Chem. 276:17395-17404. IC50 values of 1-68A and 2-68A with ppGalNAcT-5 were performed with α-FLAG purified enzyme and radiolabel capture assay, due to low activity and stability of the crude enzyme. m=murine, r=rattus.
# [2] = tested on: Jurkat cells; test: Con A staining of N-linked glycans on Jurkat cells, flow cytometry; format: cell-based, human; settings: 2 d treatment
# Procedure: Jurkat cells were seeded at 250,000 cells/well (determined by Coulter cell counter) in 12-well polystyrene tissue culture plates in 1.0 mL of media and treated with various concentrations of 1-68A or 2-68A from 50 mM dimethyl sulfoxide (DMSO) stock solutions or doxorubicin or campothecin from 1 mM DMSO stock solutions. After 2 d, cells were harvested, washed twice with PBS buffer (PBS, pH 7.4, 0.1% FCS, 0.1% NaN3 w/v) and stained with FITC-HPA (1 μg/mL) or FITC-Con A (5 μg/mL with 1 mM CaCl2) in PBS, pH 7.4 in the dark for 1 h at 4° C. Cells were washed twice with PBS buffer, resuspended in 300 μL of PBS buffer and analyzed by flow cytometry (FacsCaliber, BD Instruments). Annexin-V staining was performed according to the manufacturer's protocols (Invitrogen).
# To directly monitor ppGalNAcT activities in cells, Jurkat cells (human T-cell lymphoma), which are known to produce only the Tn-antigen (FIG. 1) as their O-linked glycans, were chosen. Piller et al. (1990) J. Biol. Chem. 265:9264-9271. Changes in Tn-antigen expression on the surface of Jurkat cells were monitored by HPA binding followed by flow cytometry analysis. Con A staining of N-linked glycans was used as a control for non-specific inhibition of protein glycosylation. Baenziger and Fiete (1979) J. Biol. Chem. 254:2400-2407.
Structure (SMILES),IC50 [1] [µM],effect on Con A staining [2]
O=c1ccn([C@@H]2O[C@H](CON=Cc3ccc(O)c(O)c3O)[C@@H](O)[C@H]2O)c(=O)[nH]1 [1-68A],20 ± 2,no significant effect
O=C(CON=Cc1ccc(O)c(O)c1O)NC[C@H]1O[C@@H](n2ccc(=O)[nH]c2=O)[C@H](O)[C@@H]1O [2-68A],26 ± 9,no significant effect
